Results: US7795305B2, “CDDO-compounds and combination therapies thereof” (Board of Regents, The University of Texas System, priority 2000, dated 2010)

How the values were obtained:
[1] = system: NB4 cells; assay: Cell surface Fas/CD95 expression by flow cytometry; assay type: cell-based, human; details: 0.5 μM, 48 hours (24.8 in DMSO-treated cells)
Procedure: Immunophenotyping. The PE-conjugated anti-CD11b, FITC-conjugated anti-CD14 monoclonal antibody (mAb) (Becton Dickinson) and PE-conjugated anti-CD95 mAb (PharMingen) were used at a 1/10 dilution. The percentage of positive cells was calculated by subtracting the percentage of cells with a fluorescence intensity greater than the set marker using the isotype control (background) from the percentage of cells with a fluorescence intensity greater than the same marker using the specific antibody.
(§1) Mechanisms of CDDO-induced apoptosis in leukemia cell lines and in primary AML samples were also determined. The involvement of the death receptor/Fas pathway was studied in NB4 cells. Treatment with 0.5 μM CDDO induced cell surface Fas/CD95 expression at 48 hours (MFI 34.8 vs 24.8 in DMSO-treated cells and 26 in untreated control). At this concentration, 22.3% of cells were annexin V positive compared with 11.4% in DMSO-controls. At 1 μM, 56.3% of cells were apoptotic. Similarly, 1 μM CDDO induced Fas expression in 7/12 AML CD34+ cells (MFI, 22.3±3.5 in DMSO-controls, 40±4.3 in CDDO-treated CD34+ cells, p<0.01).

[2] = system: U937 cells; assay: Cell cycle kinetics, proliferating (S+G2M) fraction by flow cytometry; assay type: cell-based, human
Procedure: (§2) Cell kinetic and DNA fragmentation studies. The cell cycle kinetics was determined by staining cells with acridine orange for cellular DNA and RNA content followed by flow cytometeric analysis as described. Samples were measured in a FACScan flow cytometer (Becton Dickinson, San Jose, Calif.) using the 488-nm line of a […] argon laser and filter settings for green (530 nm) (DNA) and red (585 nm) (RNA) fluorescence. Ten thousand events were stored in list mode for analysis. The percentage of cells in the “sub G1 peak” defined the proportion of apoptotic cells in the tested populations. […] Cell-cycle kinetics was analyzed using ModFit software (Verity Software House, Inc., Topsham, Me.).
CDDO. The effect of CDDO on the survival of HL-60 and U937 leukemia cell lines is depicted in FIG. 1. A time- and dose-dependent decrease of HL-60 cells: at 48 hours, 10^−8 M, at 72 and 96 hours, 10^−9 M of CDDO reduced cell numbers by 50%. Viability of U937 cells was inhibited at 107 to 1018 at 48 hours. DNA fragmentation was measured to confirm that the cell death induced by CDDO was due to apoptosis on a sub G1 cell population by DNA/RNA flow cytometry (FIG. 2). The percentage of proliferating cells were analyzed by FCM.

[3] = system: NB4 cells; assay: Annexin V staining; assay type: cell-based, human
Procedure: Annexin V staining. Cells were washed in phosphate-buffered saline (PBS) and resuspended in 100 μl of binding buffer containing Annexin V (Roche Diagnostic Corporation, Indianapolis, Ind.). Cells were analyzed by flow cytometry after the addition of propidium iodide (PI). Annexin V binds to those cells that express phosphatidylserine on the outer layer of the cell membrane, and PI stains the cellular DNA of those cells with a compromised cell membrane. This allows for live cells (unstained with either fluorochrome) to be discriminated from apoptotic cells (stained only with annexin V) and necrotic cells (stained with both annexin and PI).
as §1

[4] = system: HL-60 cells; assay: Apoptotic sub-G1 cells / apoptosis; assay type: cell-based, human
Procedure: as §2
Comparison of CDDO-compounds with other PPARγ ligands. […] In contrast, CDDO induced monocytic differentiation at 0.5 to 1.0 μM and apoptosis at 1 μM in HL-60 cells. […] These experiments will define the ability of CDDO to induce differentiation and apoptosis in comparison to other PPARγ ligands. Similar experiments are contemplated with CDDO-Me.

[5] = system: human leukemic KBM-3 cells; assay: Engraftment of leukemic cells in NOD/Scid mice, FISH; assay type: in vivo; details: 6 mg/kg/day IP for 10 days
Procedure: The effect of CDDO on engraftment of leukemic cells was further tested in NOD/Scid mice transplanted with 1×10^6 human leukemic KBM-3 cells. Eleven mice were treated with CDDO at 6 mg/kg/day IP (divided in 3 injections per day) for 10 days; a control set of 9 mice received vehicle alone. The engraftment of human leukemic cells was determined by FISH based on the known karyotype of the cells (trisomy 8) at 5 weeks following transplantation. While 10.6±2.7% cells were leukemic in the bone marrow of the control group (range 0.12-21%), only 3±2.4% leukemic cells were found in CDDO-treated mice (range 0.04-12.5%, p=0.016). 5/11 CDDO-treated animals but only ⅛ controls had <1% leukemic cells by FISH analysis.

[6] = system: U937 cells; assay: Apoptotic sub-G1 cells; assay type: cell-based, human; details: 1 μM, 48 hrs
Procedure: as §2

[7] = system: 435 breast cancer cells; assay: Breast cancer growth in nude mice; assay type: in vivo; details: 20 and 40 mg/kg i.v. twice a week
Procedure: CDDO was given at 20 and 40 mg/kg i.v. twice a week 10 days after nude mice were injected s.c. with 2×10^6 estrogen-receptor negative, PPARγ positive 435 breast cancer cells.

[8] = system: HL-60 cells; assay: Differentiation by CD11b/CD14 flow cytometry; assay type: cell-based, human; details: 7 days, 0.5 μM

Q: Which results are given for `CC1(C)CCC2(C(=O)O)CCC3(C)C(C(=O)C=C4C5(C)C=C(C#N)C(=O)C(C)(C)C5CCC43C)C2C1` (stereo not shown) [CDDO, 2-cyano-3,12-dioxoolen-1,9-dien-28-oic acid]?
A: cell surface Fas/CD95 expression, MFI [1]: 34.8; proliferating (S+G2M) fraction ([2]; 10^−6 M): 5.6%; proliferating (S+G2M) fraction ([2]; 10^−7 M (DMSO-controls 23.3%)): 14.9%; annexin V positive cells ([3]; 0.5 μM (11.4% in DMSO-controls)): 22.3%; apoptotic cells ([3]; 1 μM): 56.3%; apoptotic sub-G1 cells ([4]; 1 μM, 48 hrs): 34.8%; concentration at which apoptosis was induced ([4]; HL-60 cells): 1 µM; animals with <1% leukemic cells by FISH [5]: 5/11; leukemic cells in the bone marrow, range [5]: 0.04-12.5%; leukemic cells in the bone marrow (FISH) ([5]; 5 weeks after transplantation (control 10.6±2.7%)): 3±2.4%; apoptotic sub-G1 cells [6]: 69.4%; growth of breast cancer cells in vivo [7]: inhibits the growth of breast cancer cells in vivo; CD11b % [8]: 83.1%
